Results reported in patent publication US11135322B2, “Radiofluorination method” (GE HEALTHCARE LIMITED, priority 2012, dated 2021).

Assay: Hydrolytic stability of the metal halide complexes in aqueous solution (19F and 71Ga NMR studies)
Format: physicochemical
Source text: ^19F and ^71Ga NMR studies show complete conversion to [GaF3(Me3-tacn)]. Furthermore they confirm that the structure of the complex is retained in solution. […] The structure has also been confirmed crystallographically (FIG. 2). This provides clear evidence that direct incorporation of fluoride into the coordination sphere of carefully selected metal ions is entirely feasible, as well as establishing the high stability of the resulting fluoro complexes, even in aqueous solution.

In the case of [GaF3(Me3-tacn)].4H2O, the “resistance to hydrolysis / hydrolytic stability” value (aqueous solution) is reported as “resistant to hydrolysis” and the “stability relative to analogous halide or metal complexes” value (comparison with analogues) is reported as “considerably more stable than the chloride and bromide analogues”.
